Common to all, as to assay: Kinase panel profiling at 1 µmol/L (MSA or IMAP), percentage inhibition
Assay type in all cases: biochemical

Assay [1] addresses panel of 255 wild-type kinases (Homo sapiens, UniProt Q9Y463). To be noted: kinase DYRK1B; 1 µmol/L single concentration; read-out: %-inhibition at 1 µmol/L, DYRK1B.
For assay [2], the target named is panel of 255 wild-type kinases (Homo sapiens, UniProt Q00535). The settings on record: CDK5/p25 kinase assay; 1 µmol/L single concentration; read-out: %-inhibition CDK5/p25.
The target of assay [3] is panel of 255 wild-type kinases (Homo sapiens, UniProt P54756). The settings on record: kinase EPHA5; 1 µmol/L single concentration; read-out: %-inhibition at 1 µmol/L, EPHA5.
Assay [4] concerns the target panel of 255 wild-type kinases (Homo sapiens, UniProt Q86V86). The settings on record: kinase PIM3; 1 µmol/L single concentration; read-out: %-inhibition at 1 µmol/L, PIM3.
Assay [5] addresses panel of 255 wild-type kinases (Homo sapiens, UniProt Q9NYA1). The settings on record: kinase SPHK1; 1 µmol/L single concentration; read-out: %-inhibition at 1 µmol/L, SPHK1.
Assay [6] deals with T1, panel of 255 wild-type kinases (Homo sapiens, UniProt Q8NE63).
T1 sequence (Q8NE63 1-616): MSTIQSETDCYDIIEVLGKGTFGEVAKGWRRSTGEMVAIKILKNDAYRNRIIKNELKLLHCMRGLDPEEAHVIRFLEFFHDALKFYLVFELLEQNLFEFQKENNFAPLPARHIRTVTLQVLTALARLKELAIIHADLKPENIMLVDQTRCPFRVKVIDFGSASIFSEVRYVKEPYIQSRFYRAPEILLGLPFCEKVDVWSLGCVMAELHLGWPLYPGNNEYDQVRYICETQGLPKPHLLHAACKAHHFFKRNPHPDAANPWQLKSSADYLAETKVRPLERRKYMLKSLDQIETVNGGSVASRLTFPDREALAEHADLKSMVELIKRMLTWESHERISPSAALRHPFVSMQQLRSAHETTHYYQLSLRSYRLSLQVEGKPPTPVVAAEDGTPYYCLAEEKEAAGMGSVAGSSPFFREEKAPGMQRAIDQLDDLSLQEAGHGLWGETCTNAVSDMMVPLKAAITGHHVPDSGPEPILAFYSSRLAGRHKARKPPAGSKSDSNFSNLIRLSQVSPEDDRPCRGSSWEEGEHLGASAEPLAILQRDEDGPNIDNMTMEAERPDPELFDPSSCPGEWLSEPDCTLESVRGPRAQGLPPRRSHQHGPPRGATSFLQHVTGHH
To be noted: kinase HIPK4; 1 µmol/L single concentration; read-out: %-inhibition at 1 µmol/L, HIPK4.

In assay [7] the target is panel of 255 wild-type kinases (Homo sapiens, UniProt P51617). The settings on record: kinase IRAK1; 1 µmol/L single concentration; read-out: %-inhibition at 1 µmol/L, IRAK1.
Assay [8] addresses T2, panel of 255 wild-type kinases (Homo sapiens, UniProt P54762).
T2 sequence (P54762 18-984): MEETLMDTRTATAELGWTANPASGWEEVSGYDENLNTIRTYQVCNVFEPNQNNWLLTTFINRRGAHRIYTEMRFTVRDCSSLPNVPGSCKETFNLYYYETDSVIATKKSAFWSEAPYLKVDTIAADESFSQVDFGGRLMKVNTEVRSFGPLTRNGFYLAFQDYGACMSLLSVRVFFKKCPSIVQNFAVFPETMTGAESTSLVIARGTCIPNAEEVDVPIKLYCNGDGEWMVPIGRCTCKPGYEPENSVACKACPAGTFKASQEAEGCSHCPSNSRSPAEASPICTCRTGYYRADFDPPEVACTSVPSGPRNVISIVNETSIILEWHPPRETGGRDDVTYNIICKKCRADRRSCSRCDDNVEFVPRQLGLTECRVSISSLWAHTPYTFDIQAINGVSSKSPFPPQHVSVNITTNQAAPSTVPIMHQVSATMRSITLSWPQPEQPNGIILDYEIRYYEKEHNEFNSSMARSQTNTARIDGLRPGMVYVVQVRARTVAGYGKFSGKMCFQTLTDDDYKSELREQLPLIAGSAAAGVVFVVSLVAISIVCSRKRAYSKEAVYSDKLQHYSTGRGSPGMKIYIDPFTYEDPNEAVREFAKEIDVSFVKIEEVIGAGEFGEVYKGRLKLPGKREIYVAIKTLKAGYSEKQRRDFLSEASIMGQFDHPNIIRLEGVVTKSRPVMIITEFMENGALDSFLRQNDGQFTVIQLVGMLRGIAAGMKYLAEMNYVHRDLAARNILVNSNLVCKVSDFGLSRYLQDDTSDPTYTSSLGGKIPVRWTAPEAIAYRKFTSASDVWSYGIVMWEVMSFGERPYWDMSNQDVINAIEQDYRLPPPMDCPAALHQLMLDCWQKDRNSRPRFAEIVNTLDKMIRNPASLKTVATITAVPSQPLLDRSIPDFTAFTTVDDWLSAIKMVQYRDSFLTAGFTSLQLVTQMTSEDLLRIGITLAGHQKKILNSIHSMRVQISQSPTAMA
To be noted: kinase EPHB1; 1 µmol/L single concentration; read-out: %-inhibition at 1 µmol/L, EPHB1.

In assay [9] the target is panel of 255 wild-type kinases (Homo sapiens, UniProt Q05655). To be noted: kinase PKCδ; 1 µmol/L single concentration; read-out: %-inhibition at 1 µmol/L, PKCδ.
The target in assay [10] is T3, panel of 255 wild-type kinases (Homo sapiens, UniProt Q16566).
T3 sequence (Q16566 1-473): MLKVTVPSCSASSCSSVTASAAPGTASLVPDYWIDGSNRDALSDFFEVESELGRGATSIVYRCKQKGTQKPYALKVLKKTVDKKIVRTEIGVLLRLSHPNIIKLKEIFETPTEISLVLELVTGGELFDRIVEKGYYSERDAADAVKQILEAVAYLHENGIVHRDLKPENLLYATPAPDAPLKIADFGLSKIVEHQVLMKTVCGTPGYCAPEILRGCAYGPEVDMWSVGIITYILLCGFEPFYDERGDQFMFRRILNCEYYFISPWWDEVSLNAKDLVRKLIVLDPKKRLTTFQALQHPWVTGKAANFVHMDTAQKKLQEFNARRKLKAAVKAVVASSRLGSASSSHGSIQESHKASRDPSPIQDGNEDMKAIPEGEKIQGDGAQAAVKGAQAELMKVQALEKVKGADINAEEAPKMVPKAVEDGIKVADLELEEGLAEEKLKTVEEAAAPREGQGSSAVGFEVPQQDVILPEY
The settings on record: CaMK4 kinase assay; 1 µmol/L single concentration; read-out: %-inhibition CaMK4.

The results in this text go back to article PMC9516332 (Frontiers in Oncology, 2022).

Consider `CCc1nc(C(N)=O)c(Nc2ccc(N3CCC(N4CCN(C)CC4)CC3)c(OC)c2)nc1NC1CCOCC1` [gilteritinib], for which the inhibition at 1 µM in assay [1] is 34%; in assay [2] it was 25%; in assay [3], 52%; in [4], 23%; in assay [5] it was -6%; in assay [6], 99%. The inhibition at 1 µM in assay [7] was determined as 84%; in assay [8] it was 87%; in assay [9], 12%; in assay [10], 18%.

`O=C(Nc1cnn2ccc(N3CCC[C@@H]3c3cc(F)ccc3F)nc12)N1CC[C@H](O)C1` [larotrectinib]: the inhibition at 1 µM in [1] was 6%; in [2] it was -22%; in [3], -0.0881%; in [4], -5.31%; in assay [5], -16%; in assay [6], 6%. Moreover, the inhibition at 1 µM is -0.211% in assay [7], -0.531% in assay [8], -5% in assay [9] and 0.861% in assay [10].

Consider `C[C@H]1Oc2cc(cnc2N)-c2c(nn(C)c2C#N)CN(C)C(=O)c2ccc(F)cc21` [lorlatinib], for which the inhibition at 1 µM is -2.8% in assay [1]; -9% in assay [2]; 38% in assay [3]; -6% in assay [4]; -7% in [5]; 2.62% in assay [6]. Also, the inhibition at 1 µM was 10% in [7], 68% in [8], 5% in assay [9] and 1.56% in assay [10].

`CCN1C(=O)N(c2c(F)c(OC)cc(OC)c2F)Cc2cnc3[nH]c(CN4CCOCC4)cc3c21` [pemigatinib]: the inhibition at 1 µM in [1] is 6%; in [2] it was -12%; in assay [3], -2%; in assay [4] it was -8%; in [5], -13%; in assay [6] it was 28%. For the same compound, the inhibition at 1 µM in assay [7] is -5.31%; in [8] it was -3%; in [9], 0.471%; in [10] it was 1.2%.

As for `FC(F)(F)c1ccc(CNc2ccc(Cc3c[nH]c4ncc(Cl)cc34)cn2)cn1` [pexidartinib], the inhibition at 1 µM in assay [1] was 4.37%; in [2] it was -21%; in assay [3] it was 4%; in [4], 4.68%; in [5] it was -5%; in assay [6] it was 52%. Also, the inhibition at 1 µM was -5% in assay [7], 11% in assay [8], 6.48% in assay [9] and 4% in [10].

Regarding `CO[C@]1(C(=O)N[C@@H](C)c2ccc(-n3cc(F)cn3)nc2)CC[C@H](c2nc(C)cc(Nc3cc(C)[nH]n3)n2)CC1` [pralsetinib], the inhibition at 1 µM in assay [1] is -12%; in assay [2] it was 43%; in assay [3], 74%; in assay [4], -0.165%; in assay [5], 0.199%; in assay [6], 44%. For the same compound, the inhibition at 1 µM is 9% in [7], 58% in [8], -3% in assay [9] and 0.271% in assay [10].

On to `CCn1c(=O)c(-c2cc(NC(=O)Nc3ccccc3)c(F)cc2Br)cc2cnc(NC)cc21` [ripretinib], for which the inhibition at 1 µM is -2.38% in assay [1]; -19% in assay [2]; 100% in assay [3]; 1.11% in assay [4]; -19% in assay [5]; 98% in [6]. Further, the inhibition at 1 µM in assay [7] was -5.68%; in assay [8], 92%; in assay [9], 54%; in assay [10] it was 1.71%.

Regarding `COc1ccc(CN2C3CC2CN(c2ccc(-c4cc(OCC(C)(C)O)cn5ncc(C#N)c45)cn2)C3)cn1` [selpercatinib], the inhibition at 1 µM in assay [1] was 1.42%; in [2] it was -8.52%; in assay [3], 69%; in assay [4], -2.65%; in assay [5], -13%; in assay [6], 21%. In addition, the inhibition at 1 µM is 5% in [7], 98% in assay [8], -2% in assay [9] and -2.54% in assay [10].

As to `Cn1cnc2c(F)c(Nc3ccc(Br)cc3Cl)c(C(=O)NOCCO)cc21` [selumetinib], the inhibition at 1 µM in assay [1] was -3.17%; in assay [2], -11%; in assay [3], -12%; in [4], -0.0221%; in [5], -8%; in [6], 10%. Besides, the inhibition at 1 µM is -2.71% in assay [7], -0.927% in [8], -4.35% in assay [9] and -2% in assay [10].

Turning to `Cc1cc(Nc2ncnc3ccc(NC4=NC(C)(C)CO4)cc23)ccc1Oc1ccn2ncnc2c1` [tucatinib], the inhibition at 1 µM is -1.89% in assay [1]; -5% in [2]; -13% in [3]; -1.3% in assay [4]; -6.37% in assay [5]; 21% in assay [6]. Also, the inhibition at 1 µM turned out to be 4.63% in [7], 0.25% in assay [8], 2.67% in assay [9] and 0.435% in assay [10].
